The values that follow come from patent US12590092B2, “Antiviral agents and uses thereof” (GRIFFITH UNIVERSITY, priority 2021, dated 2026).

Like-named read-outs stand apart in the source and are kept apart here.

In assay [1] the target is hPIV-3 CI002 HN (neuraminidase function) (UniProt P08492, species not given/STRAIN_CI002). The assay is described as follows: Neuraminidase inhibition assay (MUN), hPIV-3 CI002. The class given is biochemical, hPIV-3 (strain CI002, clinical isolate). The conditions noted are these: pH 4.6.
The target of assay [2] is hPIV-3 CI002 HN (haemagglutination function) (UniProt P08492, species not given/STRAIN_CI002). Nature of the assay: Haemagglutination inhibition assay, hPIV-3 CI002. The class given is biochemical, hPIV-3 (strain CI002, clinical isolate). The conditions noted are these: 1% human red blood cells.
Assay [3] concerns the target hPIV-1 C35 HN (neuraminidase function) (Human parainfluenza 1 virus, UniProt P16071). The assay is described as follows: Neuraminidase inhibition assay (MUN), hPIV-1 C35. The class given is biochemical, hPIV-1 (strain C-35).
In assay [4] the target is hPIV-1 C35 HN (haemagglutination function) (Human parainfluenza 1 virus, UniProt P16071). The assay is described as follows: Haemagglutination inhibition assay, hPIV-1 C35. The class given is biochemical, hPIV-1 (strain C-35).
In assay [5] the target is hPIV-3 C243 HN (haemagglutination function) (UniProt P08492, species not given/STRAIN_C243). Nature of the assay: Haemagglutination inhibition assay, hPIV-3 C243. In kind it is biochemical, hPIV-3 (strain C-243). The conditions noted are these: 1% human red blood cells.
For another assay, the system named is hPIV-3 C243. Nature of the assay: In situ ELISA virus growth inhibition, hPIV-3 C243. In kind it is cell-based, hPIV-3 (strain C243) in LLC-MK2 cells (Rhesus monkey kidney). The conditions noted are these: read-out: Viral Growth IC50. Background: An ELISA detects its analyte on a solid surface through an enzyme-linked reagent.
Assay [6] addresses hPIV-3 C243 HN (neuraminidase function) (UniProt P08492, species not given/STRAIN_C243). The assay is described as follows: Neuraminidase inhibition assay (MUN), hPIV-3 C243. The class given is biochemical, hPIV-3 (strain C-243). The conditions noted are these: pH 4.6.
The next assay has as its system hPIV-3 CI002. The assay is described as follows: In situ ELISA virus growth inhibition, hPIV-3 CI002. The class given is cell-based. To be noted: Human respirovirus 3, in Macaca mulatta, LLC-MK2 cells, 36-40 h, read-out: Viral Growth IC50 (converted).
Where [7] appears, read: Human respirovirus 3, LLC-MK2, in Macaca mulatta.
Setting [8] is: Human respirovirus 3, in Macaca mulatta, hPIV-3 C243, LLC-MK2 cells, in situ ELISA, 36-40 h.

hPIV-3 CI002 HN (neuraminidase function), sequence (P08492 whole entry, change not shown): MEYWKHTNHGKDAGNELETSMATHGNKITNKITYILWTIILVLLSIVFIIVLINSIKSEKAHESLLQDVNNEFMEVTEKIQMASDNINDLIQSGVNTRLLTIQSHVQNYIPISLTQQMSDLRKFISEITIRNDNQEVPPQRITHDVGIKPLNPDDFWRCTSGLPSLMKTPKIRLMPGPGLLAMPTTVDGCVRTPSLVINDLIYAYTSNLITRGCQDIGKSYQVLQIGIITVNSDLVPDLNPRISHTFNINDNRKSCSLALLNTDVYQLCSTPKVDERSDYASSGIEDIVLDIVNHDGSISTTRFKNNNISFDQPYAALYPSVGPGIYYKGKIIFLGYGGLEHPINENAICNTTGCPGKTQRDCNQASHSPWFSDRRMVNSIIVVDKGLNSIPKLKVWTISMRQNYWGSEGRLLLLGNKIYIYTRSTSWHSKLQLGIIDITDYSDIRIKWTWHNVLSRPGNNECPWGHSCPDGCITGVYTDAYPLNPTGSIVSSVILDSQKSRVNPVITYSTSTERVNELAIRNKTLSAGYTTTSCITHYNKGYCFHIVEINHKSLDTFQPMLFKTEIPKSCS
hPIV-3 C243 HN (haemagglutination function), sequence (P08492 whole entry, change not shown): as above
hPIV-3 C243 HN (neuraminidase function), sequence (P08492 whole entry, change not shown): as above
hPIV-3 CI002 HN (haemagglutination function), sequence (P08492 whole entry, change not shown): as above
hPIV-1 C35 HN (haemagglutination function), sequence (P16071 whole entry): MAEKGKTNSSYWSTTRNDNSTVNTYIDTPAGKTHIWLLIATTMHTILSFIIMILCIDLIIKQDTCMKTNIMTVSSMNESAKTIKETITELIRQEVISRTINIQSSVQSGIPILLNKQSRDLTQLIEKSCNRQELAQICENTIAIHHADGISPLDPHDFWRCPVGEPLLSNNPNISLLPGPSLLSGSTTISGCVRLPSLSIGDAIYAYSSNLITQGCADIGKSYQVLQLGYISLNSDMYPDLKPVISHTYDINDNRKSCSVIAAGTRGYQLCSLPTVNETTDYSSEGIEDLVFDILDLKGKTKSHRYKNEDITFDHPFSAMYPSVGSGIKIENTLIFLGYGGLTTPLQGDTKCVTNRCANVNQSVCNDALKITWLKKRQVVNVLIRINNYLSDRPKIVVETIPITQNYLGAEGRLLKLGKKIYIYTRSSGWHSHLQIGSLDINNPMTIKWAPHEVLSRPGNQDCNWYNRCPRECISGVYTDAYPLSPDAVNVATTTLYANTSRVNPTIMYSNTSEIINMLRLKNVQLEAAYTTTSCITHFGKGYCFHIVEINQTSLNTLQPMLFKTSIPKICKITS
hPIV-1 C35 HN (neuraminidase function), sequence (P16071 whole entry): as above

As a reminder, the IC50 is the concentration that inhibits the measured activity by half. Regarding `O=C(O)C1=C[C@H](n2cc3ncccc3n2)[C@@H](NC(=O)C(F)(F)F)[C@H]([C@H](O)[C@H](O)CO)O1` [JC2001-49, 2,6-Anhydro-3,4,5-trideoxy-5-(2,2,2-trifluoroacetamido)-4-(2H-pyrazolo[4,3-b]pyridin-2-yl)-D-glycero-D-galacto-non-2-enonic Acid], the IC50 in assay [1] is 15.1 µM; in assay [2], 4.94 µM; in assay [3], 23.2 µM; in assay [4], 14.8 µM; in assay [5], 13.1 µM; in the assay on hPIV-3 C243 (setting [7]), 26.9 µM. Further, the 50% inhibitory concentration (IC50) was 8.33 ± 1.24 µM in assay [6] and 11.5 µM in the assay on hPIV-3 CI002.

Regarding `CC(C)C(=O)N[C@H]1[C@H]([C@H](O)[C@H](O)CO)OC(C(=O)O)=C[C@@H]1n1nnc2c3cc[nH]c3ccc21` (single isomer, unassigned) [IE1963-113b], the 50% inhibitory concentration (IC50) in assay [1] was 17.1 µM; in assay [3], 8.4 µM; in assay [5] it was 3 µM; with hPIV-3 C243 (setting [8]), 24.4 ± 3.35 µM; in assay [6], 5.14 ± 0.777 µM; in the assay with hPIV-3 CI002, 8.7 µM.

For `CC(C)C(=O)N[C@H]1[C@H]([C@H](O)[C@H](O)CO)OC(C(=O)O)=C[C@@H]1n1nnc2ccc3[nH]ccc3c21` (single isomer, unassigned) [IE1963-113a], the half-maximal inhibitory concentration (IC50) in assay [1] was 34.9 µM; in assay [3] it was 6.33 µM; in assay [5], 36.7 µM; in the assay with hPIV-3 C243 (setting [8]), 111 ± 9.29 µM; in assay [6], 17 ± 0.764 µM; with hPIV-3 CI002 it was 42.6 µM.

As to `O=C(O)C1=C[C@H](n2cc3ccc4cccnc4c3n2)[C@@H](NC(=O)C(F)(F)F)[C@H]([C@H](O)[C@H](O)CO)O1` [RP1967-89, 2,6-Anhydro-3,4,5-trideoxy-5-(2,2,2-trifluoroacetamida)-4-(2H-pyrazolo[4,3-h]quinolin-2-yl)-D-glycero-D-galacto-non-2-enonic Acid], the 50% inhibitory concentration (IC50) is 19.9 µM in assay [1]; 4.94 µM in assay [2]; 88.9 µM in assay [3]; over 200 µM in assay [4]; 3 µM in assay [5]; 9.67 µM with hPIV-3 C243 (setting [7]). Moreover, the concentration for half-maximal inhibition (IC50) in assay [6] is 5.52 ± 0.983 µM; in the assay on hPIV-3 CI002 it was 5 µM.

With `O=C(O)C1=C[C@H](n2cc3ccncc3n2)[C@@H](NC(=O)C(F)(F)F)[C@H]([C@H](O)[C@H](O)CO)O1` [JC2001-48, 2,6-Anhydro-3,4,5-trideoxy-5-(2,2,2-trifluoroacetamido)-4-(2H-pyrazolo[3,4-c]pyridin-2-yl)-D-glycero-D-galacto-non-2-enonic Acid], the IC50 in assay [1] is 29.2 µM; in assay [2], 4.94 µM; in assay [3], 1.71 µM; in assay [4] it was 0.27 µM; in assay [5], 13.1 µM; in the assay on hPIV-3 C243 (setting [7]) it was 54.5 ± 16.1 µM. The concentration for half-maximal inhibition (IC50) in assay [6] is 21.5 µM; in the assay with hPIV-3 CI002, 8.48 µM.

As to `CC(C)C(=O)N[C@H]1[C@H]([C@H](O)[C@H](O)CO)OC(C(=O)O)=C[C@@H]1n1cc2cc(F)sc2c1C#N` [RE1993-40], the IC50 is 2.71 µM in assay [1]; 0.82 µM in assay [2]; 5.41 µM in assay [3]; 22.2 µM in assay [4]; 0.735 ± 0.259 µM in assay [5]; 3.22 ± 0.726 µM in the assay on hPIV-3 C243 (setting [8]). Further, the figures for the IC50 (in assay [6]; with hPIV-3 CI002) were 1.14 ± 0.021 µM and 3.96 µM, respectively.
